What was measured:
Type in all cases: cell-based
[1] = Off-target cytotoxicity, galactose-adapted HepG2 cells (Cell Titer Glo, 5 days); details: human, galactose-adapted HepG2, five days incubation, intracellular ATP, read-out: CC50 GALHEPG2 CTG 50
Excerpt: (§1) To assess potential off-target toxicity of certain compounds disclosed herein, the in vitro cytotoxicity of those compounds was profiled using a panel of 5 cell lines with various tissue origins. Compound cytotoxicity was examined in hepatoma-derived Huh-7 and HepG2 cells, prostate carcinoma-derived PC-3 cells, lymphoma derived MT-4 cells and a normal diploid lung cell line MRC-5. HepG2 and PC-3 cells used were adapted to grow in glucose-free galactose-containing medium. These cells have a relatively higher sensitivity to inhibitors of mitochondrial oxidative phosphorylation compared to the same cells maintained in standard glucose-containing culture medium (Marroquin et al., Toxicol. Sci. 2007; 97 (2):539-47). Cell viability was determined by measuring intracellular ATP levels following five days of continuous incubation with test compounds.
(§2) The human hepatoma Huh-7 cell line was obtained from ReBLikon GmbH (Mainz, Germany) {20879}. The MT-4 cell line (HTLV-1 transformed, human T lymphoblastoid cells) was obtained from the NIH AIDS Reagent program (Bathesda, Md.). The human hepatoblastoma cell line HepG2, human prostate carcinoma cell line PC-3, and normal fetal lung derived MRC-5 cells were obtained from the American Type Culture Collection (ATCC, Manassas, Va.).
(§3) Huh-7 cells were maintained in Dulbecco's Modified Eagle Medium (DMEM) supplemented with 10% fetal bovine serum (FBS, Hyclone, Logan, Utah), 1% non-essential amino acids (Gibco, Carlsbad, Calif.). PC-3 and HepG2 cells were adapted to grow in 0.2% galactose-containing, glucose-free Dulbecco's Modified Eagle Medium (DMEM) supplemented with 10% fetal bovine serum (FBS, Hyclone, Logan, Utah), 1% non-essential amino acids (Gibco, Carlsbad, Calif.), 1% Pyruvate (Cellgro), 1% Glutamax (Invitrogen, Carlsbad, Calif.). Galactose-adapted cells were maintained in the same culture medium. MRC-5 cells were maintained in Eagle's Minimum Essential Medium (EMEM) supplemented with 10% fetal bovine serum (FBS, Hyclone, Logan, Utah). MT-4 cells were maintained in RPMI-1640 supplemented with 10% fetal bovine serum (FBS, Hyclone, Logan, Utah). All cell culture media were also supplemented with 100 Units/mL penicillin, 100 μg/mL streptomycin (Gibco).
(§4) Using a Biotek uFlow Workstation (Biotek, Winooski, Vt.), 1500 HepG2, 1500 PC-3, 500 Huh7 or 1500 MRC-5 cells in 90 μL of culture media were dispensed into each well of black polystyrene tissue culture-treated 384-well plates. Plated cells were incubated for 24 hours in an incubator at 37° C., 5% CO2 and 90% humidity. Compound serial dilutions were performed in 100% DMSO in 384-well polypropylene (high recovery) plates on a Biomek FX Workstation (Beckman Coulter, Fullerton, Calif.). After 3-fold serial dilutions, 0.4 μL of compounds were transferred into 384-well plates containing cells using a Velocity 11 system equipped with a Bravo 384-well pipettor. The DMSO concentration in the final assay plates was 0.44% (v/v). Cells were incubated with compound(s) for five days at 37° C. Puromycin (44 μM final concentration) and DMSO (0.44%, v/v) were used as a positive and negative controls, respectively
(§5) At the end of the incubation period the cytotoxicity assay was performed as follows: Media from 384-well cell culture plates were aspirated with a Biotek EL405 plate-washer (Biotek) and cells were washed with 100 μL PBS once. Twenty microliters of Cell Titer Glo (Promega, Madison, Wis.) was added to each well of the plates with a Biotek uFlow liquid dispenser. Plates were incubated for 15 minutes at room temperature before luminescence was measured with a Perkin Elmer Envision Plate Reader (Perkin Elmer, Waltham, Mass.).
(§6) CC50 values were defined as the compound concentration that caused a 50% decrease in luminescence signal, and were calculated by non-linear regression using Pipeline Pilot software by applying a four parameter fit equation (Accelrys, San Diego, Calif.). Individual CC50 values are listed as μM concentrations.

[2] = Off-target cytotoxicity, galactose-adapted PC-3 cells (Cell Titer Glo, 5 days); details: human, galactose-adapted PC-3, five days incubation, intracellular ATP, read-out: CC50 GALFC3 CTG 50
Excerpt: as §1, with “These cells have a relatively higher sensitivity to inhibitors of mitochondrial oxidative phosphorylation compared to the same cells maintained in standard glucose-containing culture medium (Marroquin et al., Toxicol. Sci. 2007; 97 (2):539-47).” left out
as §2, with “The” for “The human hepatoma Huh-7 cell line was obtained from ReBLikon GmbH (Mainz, Germany) {20879}. The”
as §3, with “MT-4 cells were maintained in RPMI-1640 supplemented with 10% fetal bovine serum (FBS, Hyclone, Logan, Utah).” left out
as §4, with “C.” for “C. Puromycin (44 μM final concentration) and DMSO (0.44%, v/v) were used as a positive and negative controls, respectively”
as §5

[3] = Off-target cytotoxicity, Huh-7 cells (Cell Titer Glo, 5 days); details: human, Huh-7 cells; Huh-7, five days incubation, intracellular ATP; read-out: CC50 HEH7 CTG 50
Excerpt: as §1, §2, §3, §4, §5, §6

[4] = Off-target cytotoxicity, MRC-5 cells (Cell Titer Glo, 5 days); details: human, MRC-5 cells; MRC-5, five days incubation, intracellular ATP; read-out: CC50 MHCS CTG 50
Excerpt: as §1, §2, §3, §4, §5, §6

[5] = Off-target cytotoxicity, MT-4 cells (Cell Titer Glo, 5 days); details: human, MT-4, five days incubation, intracellular ATP, read-out: CC50 (MT4)
Excerpt: as §1, with “These cells have a relatively higher sensitivity to inhibitors of mitochondrial oxidative phosphorylation compared to the same cells maintained in standard glucose-containing culture medium (Marroquin et al., Toxicol. Sci. 2007; 97 (2):539-47).” left out
as §2, with “The” for “The human hepatoma Huh-7 cell line was obtained from ReBLikon GmbH (Mainz, Germany) {20879}. The”
as §3, with “MT-4 cells were maintained in RPMI-1640 supplemented with 10% fetal bovine serum (FBS, Hyclone, Logan, Utah).” left out
For the MT-4 cytotoxicity assay, 0.4 μL of serially diluted compounds were added to 40 μl of cell maintenance media in 384-well black, solid bottom plate using a Biomek FX workstation (Beckman Coulter). Two thousand cells in 35 μL were added to each well using a Biotek uFlow Workstation (Biotek). […] Assay plates were incubated for five days at 37° C. in an incubator set at 5% CO2 and 90% humidity. After five days, 22 μL of Cell Titer Glo reagent (Promega) was added to the assay plates with a Biotek uFlow Workstation. Plates were subsequently placed on a Perkin Elmer Envision Plate Reader for five minutes before the luminescence signal was read.

MRC-5 cells = assay: Off-target cytotoxicity, MRC-5 cells (Cell Titer Glo, 5 days); details: MRC-5, five days incubation, intracellular ATP; read-out: CC50 MHCS CTG 50
Excerpt: as §1, §2, §3, §4, §5, §6

Huh-7 cells = assay: Off-target cytotoxicity, Huh-7 cells (Cell Titer Glo, 5 days); details: Huh-7, five days incubation, intracellular ATP; read-out: CC50 HEH7 CTG 50
Excerpt: as §1, §2, §3, §4, §5, §6

Row | Structure (SMILES) | CC50 at 5 days [1] | CC50 at 5 days [2] | CC50 at 5 days [3] | CC50 at 5 days [4] | CC50 at 5 days [5] | CC50 (MRC-5 cells) | CC50 (Huh-7 cells)
1 | CCCC[C@@](C)(CO)Nc1nc(N)nc2cc(F)cnc12 [Compound 64, (S)-2-((2-amino-7-fluoropyrido[3,2-d]pyrimidin-4-yl)amino)-2-methylhexan-1-ol] | 3.56 µM | 1.99 µM | 10.4 µM | 6.97 µM | 6.79 µM |  | 
2 | CCCC[C@@](C)(Nc1nc(N)nc2cc(F)cnc12)C(C)O (single isomer, unassigned) [Compound 95] | 28.1 µM | 16.8 µM | 31.3 µM |  | 44.1 µM | 44.4 µM | 
3 | CCCC[C@H](CO)Nc1nc(N)nc2cccnc12 [Compound 15, (R)-2-((2-aminopyrido[3,2-d]pyrimidin-4-yl)amino)hexan-1-ol] | 1.23 µM | 0.69 µM | 19.7 µM | 7.6 µM | 8.62 µM |  | 
4 | CCCC[C@](C)(CO)Nc1nc(N)nc2cc(F)cnc12 [Compound 98, (R)-2-((2-amino-7-fluoropyrido[3,2-d]pyrimidin-4-yl)amino)-2-methylhexan-1-ol] | 6.7 µM | 4.53 µM | 21.9 µM | 24.4 µM | 16.2 µM |  | 
5 | CCCC[C@H](CO)Nc1nc(N)nc2cc(F)cnc12 [Compound 44, (R)-2-((2-amino-7-fluoropyrido[3,2-d]pyrimidin-4-yl)amino)hexan-1-ol] | 1.07 µM | 0.52 µM | 9.64 µM | 3.72 µM | 1.97 µM |  | 
6 | CCCC[C@H](CNC(C)=O)Nc1nc(N)nc2cccnc12 [Compound 51, (R)—N-(2-((2-aminopyrido[3,2-d]pyrimidin-4-yl)amino)hexyl)acetamide] | ≥ 44.4 µM | 37.2 µM |  |  | 57.1 µM | 44.4 µM | 44.4 µM
7 | CCCC[C@](CO)(Nc1nc(N)nc2cccnc12)C(F)(F)F [Compound 93, (R)-2-((2-aminopyrido[3,2-d]pyrimidin-4-yl)amino)-2-(trifluoromethyl)hexan-1-ol] | 7.73 µM | 3.63 µM |  | 38.9 µM | 18.6 µM |  | 44.4 µM
8 | CCCC[C@](C)(CNC(C)=O)Nc1nc(N)nc2cc(Cl)cnc12 [Compound 65, (R)—N-(2-((2-amino-7-chloropyrido[3,2-d]pyrimidin-4-yl)amino)-2-methylhexyl)acetamide] | ≥ 44.4 µM | 44.4 µM |  |  | 56.6 µM | 44.4 µM | 44.4 µM

Reference: patent US20220305115A1 (JANSSEN SCIENCES IRELAND UNLIMITED COMPANY, priority 2019, published 2022)
